Where two headings read alike, the source gives them in different places.
What was measured:
PC-3 = assay: NCI-60 SRB screen; type: cell-based; conditions: Homo sapiens; PC-3, 10^–5 Molar; read-out: Percent growth inhibition
Description: (§1) All newly synthesized compounds were selected and screened for anticancer activity against 60 human cancer cell lines representing 9 types of tumors including leukemia, melanoma, lung, colon, CNS, ovarian, renal, prostate, and breast cancers at the National Cancer Institute (NCI), Bethesda, USA. Screening was performed utilizing a single dose (10^−5 M concentration) and cells were incubated for 48 h. The end point was determined using sulforhodamine B (SRB) dye.
(§2) In this study, all the 16 newly synthesized compounds were submitted to the National Cancer Institute (USA) for anticancer evaluation and were selected and evaluated using 60 different human tumor cell lines representing lung, colon, CNS, ovarian, renal, prostate, breast cancers as well as leukemia and melanoma. A single dose (10^–5 Molar) was used for the initial screening for evaluation of anticancer activity. The 60 human cancer cell lines were provided by the national cancer institute biomedical research campus in Frederick, Maryland.
(§3) 60 different human cancer cell lines were utilized to screen the newly synthesized compounds for anticancer activity according to the previously reported standard procedure[24]–[26] as follows: • 96 well microtiter plates were used to inoculate the cells at […] ranging from 4000–5000 cells/well depending on the replication time of individual cell lines. Roswell Park Memorial Institute culture medium (RPMI 1640 medium) containing 2 mM L-glutamine and fetal bovine serum was used to grow the cells at 37 °C, 5% CO2, 95% air and 100% relative humidity for 24 h. • Fixation of cells in two plates of each cell line in situ was done using trichloroacetic acid (TCA). This represented the measurement of cell population at the time of drug addition (Tz). • Dimethyl sulfoxide (DMSO) was used to dissolve the synthesized compounds at 400-fold the desired final maximum concentration and frozen prior to use. This frozen concentrate was melted and diluted to twice the final concentration with complete medium containing 50 µg/mL gentamycin at time of drug addition. • The final compound concentration was obtained by adding 100 µL of the synthesized compounds to the appropriate microtiter wells already containing 100 µL followed by incubation of the plates at 37 °C, 5% CO2, 95% air and 100% relative humidity for 48 h. • Fixation of the cells was achieved by gentle addition of 50 µL of cold 50% (w/v) TCA followed by incubation for 60 min at 4 °C. The supernatant was then discarded and the plates are washed 5 times with tap water and air dried. • Sulphorhodamine B (SRB) solution (100 µL) at 0.4% (w/v) in 1% acetic acid was added to each plate followed by incubation for 10 min at room temperature. The unbound dye was then removed by washing five times with 1% acetic acid and plates were air dried. • Dissolution of the bound stain was done using […] trizma base and the absorbance was read at […] wavelength using an automated plate reader. • The percentage growth inhibition was calculated as follows: Ti-Tz/C-Tz×100forconcentrationswhichTi≥Tz Ti-Tz/Tz×100forconcentrationswhichTi<Tz • Time zero (Tz) • Control growth (C) • Test growth in the presence of drug (Ti)

CAKI-1 = assay: NCI-60 SRB screen; type: cell-based; conditions: Homo sapiens; CAKI-1, 10^–5 Molar; read-out: Percent growth inhibition
Description: as §1, §2, §3

A549/ATCC = assay: NCI-60 SRB screen; type: cell-based; conditions: Homo sapiens, 10^–5 Molar, read-out: Percent growth inhibition
Description: as §1, §2, §3

leukemia SR = assay: NCI-60 SRB screen; type: cell-based; conditions: Homo sapiens; SR, 10^–5 Molar; read-out: Percent growth inhibition
Description: as §1, §2, §3

NCI-H23 = assay: NCI-60 SRB screen; type: cell-based; conditions: Homo sapiens; NCI-H23, 10^–5 Molar; read-out: Percent growth inhibition
Description: as §1, §2, §3

SF-295 = assay: NCI-60 SRB screen; type: cell-based; conditions: Homo sapiens; SF-295, 10^–5 Molar; read-out: Percent growth inhibition
Description: as §1, §2, §3

SF-268 = assay: NCI-60 SRB screen; type: cell-based; conditions: Homo sapiens; SF-268, 10^–5 Molar; read-out: Percent growth inhibition
Description: as §1, §2, §3

NCI-H460 = assay: NCI-60 SRB screen; type: cell-based; conditions: Homo sapiens; NCI-H460, 10^–5 Molar; read-out: Percent growth inhibition
Description: as §1, §2, §3

K-562 = assay: NCI-60 SRB screen; type: cell-based; conditions: Homo sapiens, K562; K-562, 10^–5 Molar; read-out: Percent growth inhibition
Description: as §1, §2, §3

SNB-75 = assay: NCI-60 SRB screen; type: cell-based; conditions: Homo sapiens; SNB-75, 10^–5 Molar; read-out: Percent growth inhibition
Description: as §1, §2, §3

BT-549 = assay: NCI-60 SRB screen; type: cell-based; conditions: Homo sapiens; BT-549, 10^–5 Molar; read-out: Percent growth inhibition
Description: as §1, §2, §3

MCF7 = assay: NCI-60 SRB screen; type: cell-based; conditions: Homo sapiens; MCF7, 10^–5 Molar; read-out: Percent growth inhibition
Description: as §1, §2, §3

T-47D = assay: NCI-60 SRB screen; type: cell-based; conditions: Homo sapiens, T47D, 10^–5 Molar, read-out: Percent growth inhibition
Description: as §1, §2, §3

HCT-15 = assay: NCI-60 SRB screen; type: cell-based; conditions: Homo sapiens; HCT-15, 10^–5 Molar; read-out: Percent growth inhibition
Description: as §1, §2, §3

HS 578T = assay: NCI-60 SRB screen; type: cell-based; conditions: Homo sapiens, 10^–5 Molar, read-out: Percent growth inhibition
Description: as §1, §2, §3

NCI-H226 = assay: NCI-60 SRB screen; type: cell-based; conditions: Homo sapiens; NCI-H226, 10^–5 Molar; read-out: Percent growth inhibition
Description: as §1, §2, §3

A498 = assay: NCI-60 SRB screen; type: cell-based; conditions: Homo sapiens; A498, 10^–5 Molar; read-out: Percent growth inhibition
Description: as §1, §2, §3

MOLT-4 = assay: NCI-60 SRB screen; type: cell-based; conditions: Homo sapiens; MOLT-4, 10^–5 Molar; read-out: Percent growth inhibition
[1] = test system: 60 human cancer cell lines; assay: NCI-60 SRB screen, whole panel; type: cell-based; conditions: for activity at 10 µM: 48 h, One Dose Mean Graph, Conc 1.00E-5 Molar, read-out: Mean Growth Percent
OVCAR-3 = assay: NCI-60 SRB screen; type: cell-based; conditions: Homo sapiens; OVCAR-3, 10^–5 Molar; read-out: Percent growth inhibition
UACC-62 = assay: NCI-60 SRB screen; type: cell-based; conditions: Homo sapiens; UACC-62, 10^–5 Molar; read-out: Percent growth inhibition
Description: as §1, §2, §3

SK-OV-3 = assay: NCI-60 SRB screen; type: cell-based; conditions: Homo sapiens; SK-OV-3, 10^–5 Molar; read-out: Percent growth inhibition

| Structure (SMILES) | inhibition at 10 µM (PC-3) | inhibition at 10 µM (CAKI-1) | inhibition at 10 µM (A549/ATCC) | inhibition at 10 µM (leukemia SR) | inhibition at 10 µM (NCI-H23) | inhibition at 10 µM (SF-295) | inhibition at 10 µM (SF-268) | inhibition at 10 µM (NCI-H460) | inhibition at 10 µM (K-562) | inhibition at 10 µM (SNB-75) | inhibition at 10 µM (BT-549) | inhibition at 10 µM (MCF7) | inhibition at 10 µM (T-47D) | inhibition at 10 µM (HS 578T) | inhibition at 10 µM (NCI-H226) | inhibition at 10 µM (A498) | activity at 10 µM ([1]; Homo sapiens) | inhibition at 10 µM (UACC-62) | melting point | inhibition at 10 µM (SK-OV-3) | other results |
| --- | --- | --- | --- | --- | --- | --- | --- | --- | --- | --- | --- | --- | --- | --- | --- | --- | --- | --- | --- | --- | --- |
| CCn1cc(C(=O)NN=Cc2ccc(Br)cc2)c(=O)c2cc(F)c(N3CCNC(C)C3)c(F)c21 (stereo not shown) [Compound 3c, N'-(4-Bromobenzylidene)-1-ethyl-6,8-difluoro-7-(3-methylpiperazin-1-yl)-4-oxo-1,4-dihydroquinoline-3-carbohydrazide] | 31.6% | 31.5% | 54.7% | 95.7% | 9.03% | 25.5% | 37.4% | 151% | 113% | 14.4% | 8.32% | 177% | 36% | 26.9% | 2.69% | 1.99% | 51.9% | – | – | – | inhibition at 10 µM (HCT-15): 119%; inhibition at 10 µM (MOLT-4): 78%; LC50 ([1]; Homo sapiens, mean over panel, Units Molar, read-out: Log10 LC50 _MID (converted)): 7.24 µM; GI50 ([1]; Homo sapiens, mean over the cell line panel (_MID), Molar, read-out: Mean Log10 GI50 (converted)): 1.74 µM; inhibition at 10 µM ([1]; Homo sapiens, single dose 10^–5 M, 60 cell lines, read-out: mean percent growth inhibition): > 47%; Log10 TGI _MID ([1]; mean over panel, Units Molar): -5.46; inhibition at 10 µM (OVCAR-3): 47.1% |
| CCn1cc(C(=O)O)c(=O)c2cc(F)c(N3CCN(C(=O)c4ccccc4)C(C)C3)c(F)c21 (stereo not shown) [Compound 7a, 7-(4-Benzoyl-3-methylpiperazin-1-yl)-1-ethyl-6,8-difluoro-4-oxo-1,4-dihydroquinoline-3-carboxylic acid] | 13% | 15.4% | – | – | 4.39% | 6.9% | 9.47% | 4.91% | 7.84% | 21.7% | 3.33% | 6.26% | 18.1% | 18.1% | 2.44% | 19.1% | 93.5% | 25% | 290 to 292 °C | – | inhibition at 10 µM (OVCAR-3): 3.69% |
| CCn1cc(C(=O)O)c(=O)c2cc(F)c(N3CCN(CC(=O)Nc4ccccc4)C(C)C3)c(F)c21 (stereo not shown) [Compound 5a, 1-Ethyl-6,8-difluoro-7-(3-methyl-4-(2-oxo-2-(phenylamino)ethyl)piperazin-1-yl)-4-oxo-1,4-dihydroquinoline-3-carboxylic acid] | 6.83% | 13% | 2.07% | – | 8.68% | 4.71% | 6.33% | 0.79% | 12.9% | 13.9% | – | 7.33% | 4.6% | 8.88% | – | 26.6% | 97.2% | 21.8% | 248 to 250 °C | 9.27% | – |
| CCn1cc(C(=O)O)c(=O)c2cc(F)c(N3CCN(C(=O)c4ccc(Br)cc4)C(C)C3)c(F)c21 (stereo not shown) [Compound 7b, 7-(4-(4-Bromobenzoyl)-3-methylpiperazin-1-yl)-1-ethyl-6,8-difluoro-4-oxo-1,4-dihydroquinoline-3-carboxylic acid] | 5.63% | 13.6% | 1.07% | 1.41% | – | 6.71% | 6.79% | 1.2% | 0.24% | 2.37% | – | 8.87% | 6.95% | 4.22% | 1.95% | 13.8% | 98.8% | 17.5% | 271 to 273 °C | 1.83% | inhibition at 10 µM (HCT-15): 1.3% |
| CCn1cc(C(=O)O)c(=O)c2cc(F)c(N3CCN(C(=O)c4ccc([N+](=O)[O-])cc4)C(C)C3)c(F)c21 (stereo not shown) [Compound 7d, 1-Ethyl-6,8-difluoro-7-(3-methyl-4-(4-nitrobenzoyl)piperazin-1-yl)-4-oxo-1,4-dihydroquinoline-3-carboxylic acid] | 12% | 17.6% | – | 44.8% | – | 2.82% | 7.01% | – | 2.06% | 13.9% | – | 5.47% | 4.73% | 8.17% | 3.95% | 8.25% | 97.3% | 10.9% | 215 to 217 °C | – | inhibition at 10 µM ([1]; Homo sapiens, prostate and renal cancer cell lines, 10^−5 M, read-out: percent inhibition): 12 to 27.2% |
| CCn1cc(C(=O)O)c(=O)c2cc(F)c(N3CCN(C(=O)c4ccc(Cl)cc4)C(C)C3)c(F)c21 (stereo not shown) [Compound 7c, 7-(4-(4-Chlorobenzoyl)-3-methylpiperazin-1-yl)-1-ethyl-6,8-difluoro-4-oxo-1,4-dihydroquinoline-3-carboxylic acid] | 9.65% | 14.9% | 1.75% | 8.55% | – | 3.13% | 7.02% | 1.66% | 1.62% | 9.12% | – | 9.09% | 5.3% | 5.57% | 7.33% | 19.2% | 97.7% | 18.9% | 282 to 284 °C | 2.14% | – |
